Test results reported in ChEMBL document CHEMBL5705893, “Targeting the mitotic checkpoint for cancer therapy with NMS-P715, an inhibitor of MPS1 kinase” (Cancer Res, 2010).
Activity calls are given as the source filed them. The calls are words filed in the database; no cut-off is given here.

Columns and labels:
M14 = test: Antiproliferative activity against human M14 cells assessed as inhibition of cell growth incubated for 72 hrs by celltiter-glo assay; assay type: functional, cell-based; conditions: M14, 72 h
[1] = molecular target: Tyrosine-protein kinase SYK (Homo sapiens, UniProt P43405)
Description: Inhibition of recombinant SYK (unknown origin)

SKM-1 = test: Antiproliferative activity against human SKM-1 cells assessed as inhibition of cell growth incubated for 72 hrs by celltiter-glo assay; assay type: functional, cell-based; conditions: SKM-1, 72 h
MOLM-13 = test: Antiproliferative activity against human MOLM-13 cells assessed as inhibition of cell growth incubated for 72 hrs by celltiter-glo assay; assay type: functional, cell-based; conditions: MOLM-13, 72 h
A-431 = test: Antiproliferative activity against human A-431 cells assessed as inhibition of cell growth incubated for 72 hrs by celltiter-glo assay; assay type: functional, cell-based; conditions: A-431, 72 h
SK-MEL-28 = test: Antiproliferative activity against human SK-MEL-28 cells assessed as inhibition of cell growth incubated for 72 hrs by celltiter-glo assay; assay type: functional, cell-based; conditions: SK-MEL-28, 72 h
CAPAN-1 = test: Antiproliferative activity against human CAPAN-1 cells assessed as inhibition of cell growth incubated for 72 hrs by celltiter-glo assay; assay type: functional, cell-based; conditions: CAPAN-1, 72 h
[2] = molecular target: Serine/threonine-protein kinase pim-2 (Homo sapiens, UniProt Q9P1W9); test: Inhibition of recombinant PIM2 (unknown origin)
Sequence of Serine/threonine-protein kinase pim-2 (Q9P1W9 whole entry): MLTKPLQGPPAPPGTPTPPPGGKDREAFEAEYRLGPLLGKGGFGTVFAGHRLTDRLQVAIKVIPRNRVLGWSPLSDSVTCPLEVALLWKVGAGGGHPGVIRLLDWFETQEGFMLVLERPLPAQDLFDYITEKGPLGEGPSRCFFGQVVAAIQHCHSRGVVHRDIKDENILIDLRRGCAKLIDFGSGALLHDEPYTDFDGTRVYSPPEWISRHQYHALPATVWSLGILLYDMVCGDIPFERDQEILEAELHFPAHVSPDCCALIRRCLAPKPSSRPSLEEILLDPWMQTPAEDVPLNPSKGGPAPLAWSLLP

SU-DHL-1 = test: Antiproliferative activity against human SU-DHL-1 cells assessed as inhibition of cell growth incubated for 72 hrs by celltiter-glo assay; assay type: functional, cell-based; conditions: SU-DHL-1, 72 h
[3] = molecular target: Proto-oncogene tyrosine-protein kinase receptor Ret (Homo sapiens, UniProt P07949); test: Inhibition of recombinant RET (unknown origin)
KM12 = test: Antiproliferative activity against human KM12 cells assessed as inhibition of cell growth incubated for 72 hrs by celltiter-glo assay; assay type: functional, cell-based; conditions: KM12, 72 h
Granta-519 = test: Antiproliferative activity against human Granta-519 cells assessed as inhibition of cell growth incubated for 72 hrs by celltiter-glo assay; assay type: functional, cell-based; conditions: Granta-519, 72 h
NCI-H522 = test: Antiproliferative activity against human NCI-H522 cells assessed as inhibition of cell growth incubated for 72 hrs by celltiter-glo assay; assay type: functional, cell-based; conditions: NCI-H522, 72 h
MOLT-4 = test: Antiproliferative activity against human MOLT-4 cells assessed as inhibition of cell growth incubated for 72 hrs by celltiter-glo assay; assay type: functional, cell-based; conditions: MOLT-4, 72 h
[4] = molecular target: Tyrosine-protein kinase ZAP-70 (Homo sapiens, UniProt P43403); test: Inhibition of recombinant ZAP70 (unknown origin)
Sequence of Tyrosine-protein kinase ZAP-70 (P43403 whole entry): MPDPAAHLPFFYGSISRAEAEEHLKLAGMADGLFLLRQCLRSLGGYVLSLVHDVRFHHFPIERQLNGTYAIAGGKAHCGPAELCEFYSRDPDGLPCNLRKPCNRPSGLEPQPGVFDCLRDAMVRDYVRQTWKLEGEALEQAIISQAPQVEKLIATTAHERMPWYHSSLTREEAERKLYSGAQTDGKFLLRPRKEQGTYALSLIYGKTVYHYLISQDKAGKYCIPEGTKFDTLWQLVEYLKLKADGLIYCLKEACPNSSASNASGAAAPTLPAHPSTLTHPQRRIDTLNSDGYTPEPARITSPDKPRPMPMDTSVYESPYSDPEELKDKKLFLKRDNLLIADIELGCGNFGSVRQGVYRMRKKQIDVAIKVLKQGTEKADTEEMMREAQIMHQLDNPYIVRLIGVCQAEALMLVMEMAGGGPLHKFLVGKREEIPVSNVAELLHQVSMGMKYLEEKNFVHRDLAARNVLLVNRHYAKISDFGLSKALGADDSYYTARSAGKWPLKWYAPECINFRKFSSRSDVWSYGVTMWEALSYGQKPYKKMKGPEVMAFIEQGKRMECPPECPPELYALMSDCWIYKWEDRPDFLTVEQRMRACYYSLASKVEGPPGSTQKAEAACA

K562 = test: Antiproliferative activity against human K562 cells assessed as inhibition of cell growth incubated for 72 hrs by celltiter-glo assay; assay type: functional, cell-based; conditions: K562, 72 h
[5] = molecular target: Dual specificity protein kinase TTK (Homo sapiens) (UniProt P33981)
Sequence of Dual specificity protein kinase TTK (Homo sapiens) (P33981 whole entry): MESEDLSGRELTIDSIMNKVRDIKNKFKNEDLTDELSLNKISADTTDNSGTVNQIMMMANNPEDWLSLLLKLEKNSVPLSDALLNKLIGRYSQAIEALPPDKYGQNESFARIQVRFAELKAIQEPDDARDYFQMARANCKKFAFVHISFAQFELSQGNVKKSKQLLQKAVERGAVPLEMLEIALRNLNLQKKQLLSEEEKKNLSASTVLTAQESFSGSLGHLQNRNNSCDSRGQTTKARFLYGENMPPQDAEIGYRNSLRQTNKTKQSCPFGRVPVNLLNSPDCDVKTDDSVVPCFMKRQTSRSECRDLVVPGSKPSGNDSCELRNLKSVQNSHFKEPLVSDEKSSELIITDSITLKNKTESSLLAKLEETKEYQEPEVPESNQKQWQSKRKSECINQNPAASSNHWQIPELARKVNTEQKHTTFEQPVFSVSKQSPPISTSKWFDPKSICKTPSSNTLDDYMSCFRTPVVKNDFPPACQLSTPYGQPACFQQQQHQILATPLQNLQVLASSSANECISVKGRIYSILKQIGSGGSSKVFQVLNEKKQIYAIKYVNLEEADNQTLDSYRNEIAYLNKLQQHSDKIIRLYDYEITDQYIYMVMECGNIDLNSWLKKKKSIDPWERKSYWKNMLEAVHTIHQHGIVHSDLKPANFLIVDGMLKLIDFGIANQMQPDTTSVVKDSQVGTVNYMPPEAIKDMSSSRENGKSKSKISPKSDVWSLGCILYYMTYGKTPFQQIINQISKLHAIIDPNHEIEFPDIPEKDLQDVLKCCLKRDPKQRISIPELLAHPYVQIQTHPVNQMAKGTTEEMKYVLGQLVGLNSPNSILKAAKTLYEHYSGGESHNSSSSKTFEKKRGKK
Description: Binding affinity to recombinant human MPS1 assessed as half life

[6] = molecular target: Epidermal growth factor receptor (Homo sapiens, UniProt P00533)
Description: Inhibition of recombinant EGFR1 (unknown origin)

[7] = molecular target: Protein-tyrosine kinase 6 (Homo sapiens, UniProt Q13882); test: Inhibition of recombinant BRK (unknown origin)
Calu-3 = test: Antiproliferative activity against human Calu-3 cells assessed as inhibition of cell growth incubated for 72 hrs by celltiter-glo assay; assay type: functional, cell-based; conditions: Calu-3, 72 h
Hs-578T = test: Antiproliferative activity against human Hs-578T cells assessed as inhibition of cell growth incubated for 72 hrs by celltiter-glo assay; assay type: functional, cell-based
NCI-H226 = test: Antiproliferative activity against human NCI-H226 cells assessed as inhibition of cell growth incubated for 72 hrs by celltiter-glo assay; assay type: functional, cell-based; conditions: NCI-H226, 72 h
LNCaP = test: Antiproliferative activity against human LNCaP cells assessed as inhibition of cell growth incubated for 72 hrs by celltiter-glo assay; assay type: functional, cell-based
[8] = molecular target: Tyrosine-protein kinase Lck (Homo sapiens, UniProt P06239); test: Inhibition of recombinant LCK (unknown origin)
[9] = molecular target: Cyclin-dependent kinase 1/cyclin B1 (Homo sapiens, UniProt P06493); test: Inhibition of recombinant CDK1/CYCB (unknown origin); assay type: protein-complex assay
Sequence of Cyclin-dependent kinase 1/cyclin B1 (P06493 whole entry): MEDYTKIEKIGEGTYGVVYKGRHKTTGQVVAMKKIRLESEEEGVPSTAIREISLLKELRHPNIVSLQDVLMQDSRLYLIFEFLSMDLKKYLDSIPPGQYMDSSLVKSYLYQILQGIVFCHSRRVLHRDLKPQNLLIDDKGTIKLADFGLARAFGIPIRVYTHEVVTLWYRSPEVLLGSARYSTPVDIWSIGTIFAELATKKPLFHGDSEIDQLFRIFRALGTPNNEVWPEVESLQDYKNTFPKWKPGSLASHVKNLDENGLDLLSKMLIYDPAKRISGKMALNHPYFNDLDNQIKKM
Sequence of Cyclin-dependent kinase 1/cyclin B1 (P14635 whole entry, further chain): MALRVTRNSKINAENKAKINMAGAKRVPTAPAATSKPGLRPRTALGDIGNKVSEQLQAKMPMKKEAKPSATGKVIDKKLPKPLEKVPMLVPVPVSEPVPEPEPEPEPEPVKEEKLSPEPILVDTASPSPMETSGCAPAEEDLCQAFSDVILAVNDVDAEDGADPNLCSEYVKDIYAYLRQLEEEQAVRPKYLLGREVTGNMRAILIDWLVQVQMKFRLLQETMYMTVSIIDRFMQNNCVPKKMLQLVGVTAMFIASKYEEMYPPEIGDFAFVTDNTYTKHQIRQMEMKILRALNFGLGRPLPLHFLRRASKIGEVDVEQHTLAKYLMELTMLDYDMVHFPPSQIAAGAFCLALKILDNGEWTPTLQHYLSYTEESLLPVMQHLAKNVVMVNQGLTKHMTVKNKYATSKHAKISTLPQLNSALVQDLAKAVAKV

[10] = molecular target: Eukaryotic translation initiation factor 2-alpha kinase 3 (Homo sapiens, UniProt Q9NZJ5); test: Inhibition of recombinant PERK (unknown origin)
T47D = test: Antiproliferative activity against human T47D cells assessed as inhibition of cell growth incubated for 72 hrs by celltiter-glo assay; assay type: functional, cell-based
T84 = test: Antiproliferative activity against human T84 cells assessed as inhibition of cell growth incubated for 72 hrs by celltiter-glo assay; assay type: functional, cell-based; conditions: T84, 72 h
EKVX = test: Antiproliferative activity against human EKVX cells assessed as inhibition of cell growth incubated for 72 hrs by celltiter-glo assay; assay type: functional, cell-based
HeLa [11] = test: Induction of mitotic arrest in human nocodazole-arrested HeLa cells assessed as delocalization of borealin at 1 micromol/L in presence of MG132; assay type: functional, cell-based; conditions: dose 1.0 µmol/L
U2OS [12] = test: Induction of mitotic arrest in human U2OS cells expressing YFP-alpha-tubulin assessed as reduction in mitotic cells at 1 micromol/L by time-lapse microscopic analysis; assay type: functional, cell-based; conditions: dose 1.0 µmol/L
HeLa [13] = test: Effect on CENPB level in human nocodazole-arrested HeLa cells at 1 micromol/L in presence of MG132; assay type: functional, cell-based; conditions: dose 1.0 µmol/L
[14] = molecular target: Serine/threonine-protein kinase NIM1 (Homo sapiens, UniProt Q8IY84); test: Inhibition of recombinant NIM1 (unknown origin)
Sequence of Serine/threonine-protein kinase NIM1 (Q8IY84 whole entry): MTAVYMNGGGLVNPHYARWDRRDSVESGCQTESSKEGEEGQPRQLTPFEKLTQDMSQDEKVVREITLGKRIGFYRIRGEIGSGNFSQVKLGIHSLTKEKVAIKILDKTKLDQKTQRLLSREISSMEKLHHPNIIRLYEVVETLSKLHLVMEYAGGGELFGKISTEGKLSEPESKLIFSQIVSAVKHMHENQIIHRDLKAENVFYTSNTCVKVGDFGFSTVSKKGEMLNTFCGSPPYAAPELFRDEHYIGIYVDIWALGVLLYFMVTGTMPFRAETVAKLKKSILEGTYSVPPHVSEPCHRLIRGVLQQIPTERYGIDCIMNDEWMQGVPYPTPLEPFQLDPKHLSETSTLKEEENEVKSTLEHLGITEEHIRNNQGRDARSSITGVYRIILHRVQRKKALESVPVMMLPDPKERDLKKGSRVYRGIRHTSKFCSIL

[15] = Half life in Athymic nu-nu mouse at 10 mg/kg, iv measured upto 24 hrs by LC-MS/MS analysis; assay type: ADME, organism-based; conditions: in vivo
CAKI-1 = test: Antiproliferative activity against human CAKI-1 cells assessed as inhibition of cell growth incubated for 72 hrs by celltiter-glo assay; assay type: functional, cell-based; conditions: CAKI-1, 72 h
Insulin receptor = Insulin receptor (Homo sapiens, UniProt P06213); test: Inhibition of recombinant IR (unknown origin)
Sequence of Insulin receptor (P06213 28-758 limits assumed): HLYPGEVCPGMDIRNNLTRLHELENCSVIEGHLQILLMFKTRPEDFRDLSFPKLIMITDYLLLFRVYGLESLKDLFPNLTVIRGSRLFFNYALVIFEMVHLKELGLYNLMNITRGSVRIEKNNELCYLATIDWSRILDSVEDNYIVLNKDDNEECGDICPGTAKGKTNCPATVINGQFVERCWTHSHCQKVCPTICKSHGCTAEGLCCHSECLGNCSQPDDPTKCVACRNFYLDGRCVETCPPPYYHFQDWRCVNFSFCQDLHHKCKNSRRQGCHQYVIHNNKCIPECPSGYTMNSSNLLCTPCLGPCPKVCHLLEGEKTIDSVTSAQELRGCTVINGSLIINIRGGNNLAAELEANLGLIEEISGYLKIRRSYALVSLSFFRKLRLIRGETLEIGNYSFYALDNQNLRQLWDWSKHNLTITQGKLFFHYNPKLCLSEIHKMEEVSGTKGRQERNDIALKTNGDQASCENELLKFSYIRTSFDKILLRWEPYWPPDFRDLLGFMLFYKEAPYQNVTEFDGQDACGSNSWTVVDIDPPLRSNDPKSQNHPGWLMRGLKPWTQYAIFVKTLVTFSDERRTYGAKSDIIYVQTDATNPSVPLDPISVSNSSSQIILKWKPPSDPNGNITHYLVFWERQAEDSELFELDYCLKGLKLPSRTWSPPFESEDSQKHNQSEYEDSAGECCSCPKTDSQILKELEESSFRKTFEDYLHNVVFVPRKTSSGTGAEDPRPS
Sequence of Insulin receptor (P06213 763-1382 limits assumed): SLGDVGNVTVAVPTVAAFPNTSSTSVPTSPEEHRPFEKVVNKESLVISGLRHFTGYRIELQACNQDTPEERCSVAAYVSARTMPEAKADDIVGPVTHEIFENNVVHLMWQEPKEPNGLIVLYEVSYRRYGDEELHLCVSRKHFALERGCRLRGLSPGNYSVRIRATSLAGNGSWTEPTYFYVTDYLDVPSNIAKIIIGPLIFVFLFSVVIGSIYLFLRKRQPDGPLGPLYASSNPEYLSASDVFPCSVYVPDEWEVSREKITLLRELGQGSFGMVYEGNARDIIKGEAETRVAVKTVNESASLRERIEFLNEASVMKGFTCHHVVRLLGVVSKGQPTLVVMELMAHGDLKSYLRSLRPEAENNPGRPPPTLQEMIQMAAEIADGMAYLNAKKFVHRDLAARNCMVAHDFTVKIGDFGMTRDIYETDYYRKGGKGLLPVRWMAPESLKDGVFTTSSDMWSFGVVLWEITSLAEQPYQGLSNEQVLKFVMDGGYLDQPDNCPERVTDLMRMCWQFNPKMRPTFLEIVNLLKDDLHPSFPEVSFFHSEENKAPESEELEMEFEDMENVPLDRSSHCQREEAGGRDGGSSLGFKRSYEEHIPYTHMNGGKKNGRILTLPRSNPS

NHDF = test: Antiproliferative activity against human NHDF cells assessed as inhibition of cell growth incubated for 72 hrs by celltiter-glo assay; assay type: functional, cell-based
A-375 = test: Antiproliferative activity against human A-375 cells assessed as inhibition of cell growth incubated for 72 hrs by celltiter-glo assay; assay type: functional, cell-based; conditions: A-375, 72 h
[16] = molecular target: RAC-alpha serine/threonine-protein kinase (Homo sapiens, UniProt P31749); test: Inhibition of recombinant AKT1 (unknown origin)
Sequence of RAC-alpha serine/threonine-protein kinase (P31749 whole entry): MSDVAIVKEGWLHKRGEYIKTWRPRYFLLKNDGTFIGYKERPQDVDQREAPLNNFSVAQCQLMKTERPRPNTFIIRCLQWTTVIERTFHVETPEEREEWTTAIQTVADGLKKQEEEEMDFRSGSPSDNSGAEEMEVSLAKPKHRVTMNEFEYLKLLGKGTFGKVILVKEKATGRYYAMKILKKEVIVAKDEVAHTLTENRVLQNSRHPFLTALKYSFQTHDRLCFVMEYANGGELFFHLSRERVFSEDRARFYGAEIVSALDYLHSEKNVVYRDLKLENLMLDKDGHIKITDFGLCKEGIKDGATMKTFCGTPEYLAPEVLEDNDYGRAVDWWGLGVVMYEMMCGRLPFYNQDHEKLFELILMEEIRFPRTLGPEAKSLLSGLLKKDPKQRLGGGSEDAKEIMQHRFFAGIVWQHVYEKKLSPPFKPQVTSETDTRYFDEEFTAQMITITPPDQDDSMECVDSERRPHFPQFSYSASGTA

[17] = Inhibition of recombinant ABL (unknown origin); set-up: species or system Homo sapiens
U2OS [18] = test: Cytotoxicity against human U2OS cells expressing YFP-alpha tubulin assessed as cell death incubated for 86 hrs; assay type: functional, cell-based
U2OS [19] = test: Induction of mitotic arrest in human U2OS cells expressing YFP-alpha-tubulin assessed as reduction in mitotic-phase length at 1 micromol/L by time-lapse microscopic analysis; assay type: functional, cell-based; conditions: dose 1.0 µmol/L
RPMI-8226 = test: Antiproliferative activity against human RPMI-8226 cells assessed as inhibition of cell growth incubated for 72 hrs by celltiter-glo assay; assay type: functional, cell-based; conditions: RPMI-8226, 72 h
HeLa [20] = test: Induction of mitotic arrest in human nocodazole-arrested HeLa cells assessed as delocalization of MAD2 at 1 micromol/L in presence of MG132; assay type: functional, cell-based; conditions: dose 1.0 µmol/L

- IC50 [1]: > 10000 nM
- IC50 (SKM-1): 10000 nM
- IC50 (MOLM-13): 1040 nM
- IC50 (A-431): 469 nM
- IC50 (SK-MEL-28): 2590 nM
- IC50 [2]: > 10000 nM
- IC50 (SU-DHL-1): 3310 nM
- IC50 [3]: > 10000 nM
- IC50 (NCI-H522): 1200 nM
- IC50 (MOLT-4): 1040 nM
- IC50 [4]: > 10000 nM
- IC50 (K562): 2700 nM
- T1/2 [5]: 9.76 min
- IC50 [6]: > 10000 nM
- IC50 [7]: > 10000 nM
- IC50 (Calu-3): 1440 nM
- IC50 (NCI-H226): 2010 nM
- IC50 (LNCaP): 3070 nM
- IC50 [8]: > 10000 nM
- IC50 [9]: > 10000 nM
- IC50 [10]: > 10000 nM
- IC50 (T47D): 2860 nM
- IC50 [14]: > 10000 nM
- half-life [15]: 7.65 h
- IC50 (Insulin receptor): > 10000 nM
- IC50 (A-375): 796 nM
- IC50 [16]: > 10000 nM
- IC50 [17]: > 10000 nM
- IC50 (RPMI-8226): 1480 nM
SMILES: CCc1cccc(CC)c1NC(=O)c1nn(C)c2c1CCc1cnc(Nc3ccc(C(=O)NC4CCN(C)CC4)cc3OC(F)(F)F)nc1-2
- IC50 (M14): 698 nM
- IC50 (CAPAN-1): 5220 nM
- IC50 (KM12): 586 nM
- IC50 (Granta-519): 1690 nM
- IC50 (Hs-578T): 6640 nM
- IC50 (T84): 10000 nM
- IC50 (EKVX): 6980 nM
- Activity (HeLa [11]): Active
- Activity (U2OS [12]): Active
- Activity (HeLa [13]): Active
- IC50 (CAKI-1): 2000 nM
- IC50 (NHDF): 10000 nM
- Activity (U2OS [18]): Active
- Activity (U2OS [19]): Active
- Activity (HeLa [20]): Active
